One assay deals with Procathepsin L (Homo sapiens, UniProt P07711). Put plainly: Inhibition of human liver cathepsin L using Z-R-R-AMC as substrate preincubated with compound for 5 mins measured after 20 mins by fluorescence analysis.
The target in a further assay is Cathepsin B (Homo sapiens, UniProt P07858). Put plainly: Inhibition of human liver cathepsin B using Z-R-R-AMC as substrate preincubated with compound for 5 mins measured after 20 mins by fluorescence analysis.

Chain of Procathepsin L (P07711 whole entry): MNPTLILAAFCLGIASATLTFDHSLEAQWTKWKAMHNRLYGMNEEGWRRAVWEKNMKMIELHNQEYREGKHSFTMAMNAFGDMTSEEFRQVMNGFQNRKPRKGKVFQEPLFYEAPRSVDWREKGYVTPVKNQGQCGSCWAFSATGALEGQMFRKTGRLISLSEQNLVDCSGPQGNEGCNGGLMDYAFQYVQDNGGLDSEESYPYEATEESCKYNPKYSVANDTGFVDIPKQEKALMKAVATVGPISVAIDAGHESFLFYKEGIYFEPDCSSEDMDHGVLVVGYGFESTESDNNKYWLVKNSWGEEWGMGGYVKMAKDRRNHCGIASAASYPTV

Turning to `NC(=S)N/N=C1\CCSc2ccc(Cl)cc21`, the IC50 – broadly, the concentration needed to halve the response being measured – on Procathepsin L was 0.228 µM; on Cathepsin B, above 10 µM.
In the case of `NC(=S)N/N=C1\CCSc2c(OC(F)(F)F)cccc21`, the IC50 at Procathepsin L and at Cathepsin B was above 10 µM each time.
As for `NC(=S)N/N=C1\CCSc2ccc(F)cc21`, the IC50 on Procathepsin L is 0.741 µM; on Cathepsin B, above 10 µM.
For `NC(=S)N/N=C1\CCSc2ccc(Br)cc21`, in that order: 0.152 µM and above 10 µM.
In the same order, the values of `NC(=S)N/N=C1\CCSc2cc(F)c(F)cc21` are 0.046 µM and above 10 µM.
Take `NC(=S)N/N=C1\CCSc2c(F)cc(F)cc21`: the IC50 was 1.5 µM at Procathepsin L and above 10 µM on Cathepsin B.
For `NC(=S)N/N=C1\CCSc2c(Br)cc(F)cc21`, the IC50 at Procathepsin L and at Cathepsin B was above 10 µM in each case.
With `NC(=S)N/N=C1\CCSc2c(F)cc(Br)cc21`, the IC50 is 0.434 µM at Procathepsin L and above 10 µM on Cathepsin B.
Turning to `Cc1ccc2c(c1)/C(=N/NC(N)=S)CCS2`, the 50% inhibitory concentration (IC50) on Procathepsin L was 0.214 µM; at Cathepsin B, above 10 µM.
For `CCc1ccc2c(c1)/C(=N/NC(N)=S)CCS2`, in that order: 2.72 µM and above 10 µM.
For `CC(C)c1ccc2c(c1)/C(=N/NC(N)=S)CCS2`, in that order: above 10 µM and above 10 µM.
For `COc1ccc2c(c1)/C(=N/NC(N)=S)CCS2`, in that order: above 10 µM and above 10 µM.
Regarding `CSc1ccc2c(c1)/C(=N/NC(N)=S)CCS2`, the IC50 on Procathepsin L and at Cathepsin B was above 10 µM in each case.
On to `NC(=S)N/N=C1\CCSc2ccc(C(F)(F)F)cc21`, for which the IC50 on Procathepsin L was 0.284 µM; at Cathepsin B it was above 10 µM.
For `NC(=S)N/N=C1\CCSc2ccc(OC(F)(F)F)cc21`, in that order: 0.256 µM and above 10 µM.
Regarding `NC(=S)N/N=C1\CCSc2ccc(O)cc21`, the IC50 at Procathepsin L and at Cathepsin B was above 10 µM each time.
Turning to `NC(=S)N/N=C1\CCSc2ccc([N+](=O)[O-])cc21`, the results for the IC50 on Procathepsin L and at Cathepsin B were 0.068 µM and above 10 µM, respectively.
For `CC(=O)Nc1ccc2c(c1)/C(=N/NC(N)=S)CCS2`, in that order: above 10 µM and above 10 µM.
For `NC(=S)N/N=C1\CCSc2ccc3ccccc3c21`, in that order: above 10 µM and above 10 µM.
In the same order, the values of `NC(=S)N/N=C1\CCS(=O)(=O)c2ccc(F)cc21` are above 10 µM and above 10 µM.
For the compound `NC(=S)N/N=C1\CCS(=O)(=O)c2ccc(Cl)cc21`, the IC50 at Procathepsin L and on Cathepsin B was above 10 µM each time.
In the case of `NC(=S)N/N=C1\CCS(=O)(=O)c2cc(F)c(F)cc21`, the IC50 is 3.65 µM on Procathepsin L and above 10 µM at Cathepsin B.
For `NC(=S)N/N=C1\CCS(=O)(=O)c2c(F)cc(F)cc21`, in that order: above 10 µM and above 10 µM.
Consider `NC(=S)N/N=C1\CCS(=O)(=O)c2c(Br)cc(F)cc21`, for which the IC50 at Procathepsin L and at Cathepsin B was above 10 µM throughout.
For the compound `NC(=S)N/N=C1\CCS(=O)(=O)c2c(F)cc(Br)cc21`, the IC50 on Procathepsin L is 1.12 µM; on Cathepsin B it was above 10 µM.
For `Cc1ccc2c(c1)/C(=N/NC(N)=S)CCS2(=O)=O`, in that order: above 10 µM and above 10 µM.
In the same order, the values of `CCc1ccc2c(c1)/C(=N/NC(N)=S)CCS2(=O)=O` are 6.52 µM and above 10 µM.
For `CC(C)c1ccc2c(c1)/C(=N/NC(N)=S)CCS2(=O)=O`, in that order: above 10 µM and above 10 µM.
Take `COc1ccc2c(c1)/C(=N/NC(N)=S)CCS2(=O)=O`: the IC50 on Procathepsin L and at Cathepsin B was above 10 µM throughout.
Consider `NC(=S)N/N=C1\CCS(=O)(=O)c2ccc(C(F)(F)F)cc21`, for which the IC50 is 0.26 µM on Procathepsin L and above 10 µM on Cathepsin B.
For `NC(=S)N/N=C1\CCS(=O)(=O)c2ccc(OC(F)(F)F)cc21`, in that order: 3.96 µM and above 10 µM.
For `NC(=S)N/N=C1\CCS(=O)(=O)c2ccc([N+](=O)[O-])cc21`, in that order: 0.112 µM and above 10 µM.
In the same order, the values of `CC(=O)Nc1ccc2c(c1)/C(=N/NC(N)=S)CCS2(=O)=O` are above 10 µM and above 10 µM.
Turning to `NC(=S)N/N=C1\CCS(=O)(=O)c2ccc(Br)cc21`, the IC50 is 0.574 µM on Procathepsin L and above 10 µM on Cathepsin B.
Take `NC(=S)NN=C1CCSc2ccc(N)cc21` (mixture of isomers): the IC50 on Procathepsin L and on Cathepsin B was above 10 µM in each case.
With `NC(=S)NN=C1CCS(=O)(=O)c2ccc(O)cc21` (mixture of isomers), the IC50 at Procathepsin L and at Cathepsin B was above 10 µM throughout.

Values taken from ChEMBL document CHEMBL2062494, “Synthesis and biochemical evaluation of thiochromanone thiosemicarbazone analogues as inhibitors of cathepsin L” (ACS Med Chem Lett, 2012).
